Consider 16 compounds from ChEMBL document CHEMBL1137123, “Himbacine analogs as muscarinic receptor antagonists--effects of tether and heterocyclic variations” (Bioorg Med Chem Lett, 2004).

In test [1] the target is T1, Muscarinic acetylcholine receptor M1 (Homo sapiens, UniProt P11229).
T1 sequence (P11229 whole entry): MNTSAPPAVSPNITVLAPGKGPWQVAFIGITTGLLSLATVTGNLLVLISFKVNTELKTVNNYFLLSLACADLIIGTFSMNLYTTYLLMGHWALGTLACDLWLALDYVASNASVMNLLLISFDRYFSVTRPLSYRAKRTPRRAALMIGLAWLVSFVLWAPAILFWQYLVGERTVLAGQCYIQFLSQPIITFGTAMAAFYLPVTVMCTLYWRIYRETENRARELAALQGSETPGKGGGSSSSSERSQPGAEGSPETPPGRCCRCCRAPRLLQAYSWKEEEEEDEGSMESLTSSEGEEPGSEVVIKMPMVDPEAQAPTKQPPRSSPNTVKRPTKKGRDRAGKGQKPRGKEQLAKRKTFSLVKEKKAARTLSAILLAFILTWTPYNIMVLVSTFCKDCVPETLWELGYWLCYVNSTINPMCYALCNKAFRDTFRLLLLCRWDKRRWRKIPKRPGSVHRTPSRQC
Nature of the test: In vitro inhibitory activity against cloned human M1 muscarinic receptor.

In test [2] the target is T2, Muscarinic acetylcholine receptor M2 (Homo sapiens, UniProt P08172).
T2 sequence (P08172 whole entry): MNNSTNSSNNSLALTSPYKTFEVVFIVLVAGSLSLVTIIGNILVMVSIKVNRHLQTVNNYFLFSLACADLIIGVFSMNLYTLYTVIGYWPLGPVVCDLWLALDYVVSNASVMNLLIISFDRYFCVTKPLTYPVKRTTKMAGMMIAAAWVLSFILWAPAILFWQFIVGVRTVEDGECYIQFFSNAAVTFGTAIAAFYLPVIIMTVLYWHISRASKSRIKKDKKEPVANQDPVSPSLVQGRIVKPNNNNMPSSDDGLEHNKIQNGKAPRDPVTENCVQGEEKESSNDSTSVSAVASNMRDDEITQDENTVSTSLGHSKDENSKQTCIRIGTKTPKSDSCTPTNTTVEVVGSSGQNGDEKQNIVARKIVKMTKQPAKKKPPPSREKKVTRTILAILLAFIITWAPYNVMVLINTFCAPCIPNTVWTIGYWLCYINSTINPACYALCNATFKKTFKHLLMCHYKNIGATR
Kind of test: In vitro inhibitory activity against cloned human M2 muscarinic receptor.

The term Ki denotes a dissociation constant, usually derived from enzyme kinetics or from competition with a known ligand. Low readings indicate higher affinity, high ones lower affinity.

As to `C[C@@H]1OC(=O)[C@H]2C[C@H]3CCCC[C@@H]3/C(=C/C[C@H]3CCC[C@H](C)N3C)[C@@H]12`, the Ki was found to be 65.9 nM in test [1] and 13.3 nM in test [2].
For `C[C@@H]1OC(=O)[C@H]2C=C3CCCC[C@@H]3/C(=C/CC3CCC(C)(C)[N+]3(C)C)[C@@H]12` (some centres not stated) the same measures were 446 nM and 571 nM.
For `C[C@@H]1OC(=O)[C@H]2C[C@H]3CCCC[C@@H]3/C(=C/CC3CCC(C)(C)N3C)[C@@H]12` (some centres not stated) the same measures were 418 nM and 43 nM.
On the same counts, the results for `CCN1C(C/C=C2\[C@H]3[C@H](C)OC(=O)[C@H]3C=C3CCCC[C@@H]32)CCC1(C)C` (some centres not stated) are 640 nM and > 1400 nM.
On to `C[C@@H]1OC(=O)[C@H]2C[C@H]3CCCC[C@@H]3[C@@H]([C@@H](O)C[C@H]3CCC(C)(C)N3C)[C@@H]12`, for which the Ki in test [1] and in test [2] was > 1400 nM each time.
Turning to `CCN1C(CCC2[C@H]3[C@H](C)OC(=O)[C@H]3C[C@H]3CCCC[C@H]23)CCC1(C)C` (some centres not stated), the Ki is 811 nM in test [1] and 449 nM in test [2].
For `C[C@@H]1OC(=O)[C@H]2C[C@H]3CCCC[C@@H]3[C@@H](CC[C@H]3CCC[C@H](C)N3)[C@@H]12` the same measures were 68 nM and 16 nM.
For `C[C@@H]1OC(=O)[C@H]2C[C@H]3CCCC[C@@H]3C(CCC3CCC(C)(C)N3C)[C@@H]12` (some centres not stated), the inhibition constant (Ki) in test [1] was found to be 122 nM; in test [2], 12.2 nM.
On the same counts, the results for `C[C@@H]1OC(=O)[C@H]2C[C@H]3CCCC[C@@H]3[C@@H](/C(O)=C/[C@H]3CCC[C@H](C)N3C)[C@@H]12` are 1570 nM and 203 nM.
With `C[C@@H]1OC(=O)[C@H]2C[C@H]3CCCC[C@@H]3[C@@H](/C=C/[C@@H]3CCC[C@H](C)N3C)[C@@H]12`, the Ki in test [1] and in test [2] was > 1400 nM in each case.
As for `C[C@@H]1OC(=O)[C@H]2C[C@H]3CCCC[C@@H]3[C@@H](/C=C/[C@H]3CCC[C@H](C)N3C)[C@@H]12` [HIMBACINE], the results for the Ki in test [1] and in test [2] were 48 nM and 4.5 nM, respectively.
On the same counts, the results for `C[C@@H]1OC(=O)[C@H]2C[C@H]3CCCC[C@@H]3[C@@H](/C=C/[C@@H]3CCC[C@H](C)N3)[C@@H]12` are > 1400 nM and > 1400 nM.
For `C[C@@H]1OC(=O)[C@H]2C=C3CCCC[C@@H]3/C(=C/CC3CCC(C)(C)N3C)[C@@H]12` (some centres not stated) the same measures were 177 nM and 68 nM.
For `C[C@@H]1OC(=O)[C@H]2C=C3CCCC[C@@H]3[C@@H]([C@@H]3CC4CCC(C)(C)[N+]4(C)O3)[C@@H]12` (some centres not stated) the same measures were 790 nM and 180 nM.
`C[C@@H]1OC(=O)[C@H]2C=C3CCCC[C@@H]3[C@@H]([C@@H]3CC4CCC(C)(C)N4O3)[C@@H]12` (some centres not stated): the Ki in test [1] and in test [2] was > 1400 nM in each case.
With `C[C@@H]1OC(=O)[C@H]2C[C@H]3CCCC[C@@H]3[C@@H](CC[C@H]3CCC[C@H](C)N3C)[C@@H]12`, the inhibitory constant (Ki) was 32 nM in test [1] and 4.3 nM in test [2].
